Among the data in ChEMBL document CHEMBL4665643 (Bioorg Med Chem Lett, 2019) are inhibition, efflux ratio and IC50 values, retold here.

The structures appear in SMILES notation.

Data set [1] addresses Serine/threonine-protein kinase pim-2 (Homo sapiens) (UniProt Q9P1W9). In words: Inhibition of recombinant human GST-tagged full length PIM2 expressed in baculovirus expression system using Ser/Thr 07 as substrate at 0.1 uM incubated for 60 mins by Z'-lyte assay relative to control.
In data set [2] the target is T1, Serine/threonine-protein kinase TAO2 (Homo sapiens) (UniProt Q9UL54).
T1 sequence (whole entry): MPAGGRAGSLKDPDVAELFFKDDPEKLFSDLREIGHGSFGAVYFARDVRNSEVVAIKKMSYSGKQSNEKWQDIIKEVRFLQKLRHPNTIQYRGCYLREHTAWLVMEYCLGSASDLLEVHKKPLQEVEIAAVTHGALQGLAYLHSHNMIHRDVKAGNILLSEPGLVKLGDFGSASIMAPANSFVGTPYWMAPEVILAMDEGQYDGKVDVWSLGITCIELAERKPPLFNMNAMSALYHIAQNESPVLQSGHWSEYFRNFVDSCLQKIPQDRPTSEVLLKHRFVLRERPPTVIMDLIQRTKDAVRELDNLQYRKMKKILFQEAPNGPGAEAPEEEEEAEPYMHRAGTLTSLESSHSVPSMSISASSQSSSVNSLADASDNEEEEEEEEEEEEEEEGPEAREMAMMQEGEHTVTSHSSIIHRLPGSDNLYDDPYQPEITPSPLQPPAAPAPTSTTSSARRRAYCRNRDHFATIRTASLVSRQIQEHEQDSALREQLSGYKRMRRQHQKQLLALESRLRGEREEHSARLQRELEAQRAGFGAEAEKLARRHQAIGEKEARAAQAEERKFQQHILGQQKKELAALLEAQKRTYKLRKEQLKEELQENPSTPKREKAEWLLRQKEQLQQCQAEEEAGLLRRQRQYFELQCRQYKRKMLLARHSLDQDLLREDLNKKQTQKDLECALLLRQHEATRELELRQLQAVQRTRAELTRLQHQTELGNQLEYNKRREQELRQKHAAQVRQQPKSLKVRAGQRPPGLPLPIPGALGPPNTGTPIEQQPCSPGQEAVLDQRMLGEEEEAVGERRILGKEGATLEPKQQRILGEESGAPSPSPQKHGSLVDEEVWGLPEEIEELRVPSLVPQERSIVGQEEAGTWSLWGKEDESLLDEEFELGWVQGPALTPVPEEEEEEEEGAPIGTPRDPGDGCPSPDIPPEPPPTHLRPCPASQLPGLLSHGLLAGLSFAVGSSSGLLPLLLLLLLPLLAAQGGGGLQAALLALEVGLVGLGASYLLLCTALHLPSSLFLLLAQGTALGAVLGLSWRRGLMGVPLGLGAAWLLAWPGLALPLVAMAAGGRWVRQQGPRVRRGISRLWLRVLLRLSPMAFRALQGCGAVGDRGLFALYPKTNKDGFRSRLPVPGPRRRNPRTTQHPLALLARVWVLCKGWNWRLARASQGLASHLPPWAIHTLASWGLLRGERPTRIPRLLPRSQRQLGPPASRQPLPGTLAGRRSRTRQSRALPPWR
In words: Inhibition of recombinant human GST-tagged TAO2 (1 to 314 residues) expressed in baculovirus expression system using Ser/Thr 07 as substrate at 0.1 uM incubated for 60 mins by Z'-Lyte assay relative to control.

Data set [3] is described as follows: in vitro. Particulars: dog, MDCK.
Description: Efflux ratio of apparent permeability basolateral to apical over apical to basolateral side in MDCK cells at 10 uM incubated upto 180 mins by LC/MS-MS analysis
The target of data set [4] is RAC-alpha serine/threonine-protein kinase (Homo sapiens) (UniProt P31749). The data set is described as follows: Inhibition of recombinant human His-tagged full length AKT1 expressed in baculovirus expression system using Ser/Thr 06 as substrate at 0.1 uM incubated for 60 mins by Z'-Lyte assay relative to control.
Sequence of RAC-alpha serine/threonine-protein kinase (Homo sapiens) (P31749 whole entry): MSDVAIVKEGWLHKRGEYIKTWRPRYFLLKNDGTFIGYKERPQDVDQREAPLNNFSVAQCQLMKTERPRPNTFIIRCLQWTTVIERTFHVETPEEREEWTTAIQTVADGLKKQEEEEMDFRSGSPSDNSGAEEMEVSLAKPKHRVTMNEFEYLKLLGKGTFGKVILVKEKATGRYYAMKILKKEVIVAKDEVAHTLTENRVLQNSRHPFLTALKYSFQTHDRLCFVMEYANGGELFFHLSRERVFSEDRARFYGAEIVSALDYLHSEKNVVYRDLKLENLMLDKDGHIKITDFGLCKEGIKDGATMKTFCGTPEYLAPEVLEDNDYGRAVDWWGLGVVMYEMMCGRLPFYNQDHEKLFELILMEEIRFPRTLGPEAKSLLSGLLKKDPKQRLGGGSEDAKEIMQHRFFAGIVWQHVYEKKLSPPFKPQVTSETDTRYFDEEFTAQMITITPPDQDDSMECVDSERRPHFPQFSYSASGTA
In data set [5] the target is Janus Kinase (JAK) (Homo sapiens, UniProt P52333+P23458+O60674+P29597). Particulars: beas-2b.
Description: Inhibition of JAK in human BEAS-2B cells assessed as reduction in IL13-induced STAT6 phosphorylation incubated for 1 hr followed by IL13 addition and measured after 15 mins by immunofluorescence assay
Data set [6] has as its target T2, Ephrin type-B receptor 2 (Homo sapiens) (UniProt P29323).
T2 sequence (whole entry): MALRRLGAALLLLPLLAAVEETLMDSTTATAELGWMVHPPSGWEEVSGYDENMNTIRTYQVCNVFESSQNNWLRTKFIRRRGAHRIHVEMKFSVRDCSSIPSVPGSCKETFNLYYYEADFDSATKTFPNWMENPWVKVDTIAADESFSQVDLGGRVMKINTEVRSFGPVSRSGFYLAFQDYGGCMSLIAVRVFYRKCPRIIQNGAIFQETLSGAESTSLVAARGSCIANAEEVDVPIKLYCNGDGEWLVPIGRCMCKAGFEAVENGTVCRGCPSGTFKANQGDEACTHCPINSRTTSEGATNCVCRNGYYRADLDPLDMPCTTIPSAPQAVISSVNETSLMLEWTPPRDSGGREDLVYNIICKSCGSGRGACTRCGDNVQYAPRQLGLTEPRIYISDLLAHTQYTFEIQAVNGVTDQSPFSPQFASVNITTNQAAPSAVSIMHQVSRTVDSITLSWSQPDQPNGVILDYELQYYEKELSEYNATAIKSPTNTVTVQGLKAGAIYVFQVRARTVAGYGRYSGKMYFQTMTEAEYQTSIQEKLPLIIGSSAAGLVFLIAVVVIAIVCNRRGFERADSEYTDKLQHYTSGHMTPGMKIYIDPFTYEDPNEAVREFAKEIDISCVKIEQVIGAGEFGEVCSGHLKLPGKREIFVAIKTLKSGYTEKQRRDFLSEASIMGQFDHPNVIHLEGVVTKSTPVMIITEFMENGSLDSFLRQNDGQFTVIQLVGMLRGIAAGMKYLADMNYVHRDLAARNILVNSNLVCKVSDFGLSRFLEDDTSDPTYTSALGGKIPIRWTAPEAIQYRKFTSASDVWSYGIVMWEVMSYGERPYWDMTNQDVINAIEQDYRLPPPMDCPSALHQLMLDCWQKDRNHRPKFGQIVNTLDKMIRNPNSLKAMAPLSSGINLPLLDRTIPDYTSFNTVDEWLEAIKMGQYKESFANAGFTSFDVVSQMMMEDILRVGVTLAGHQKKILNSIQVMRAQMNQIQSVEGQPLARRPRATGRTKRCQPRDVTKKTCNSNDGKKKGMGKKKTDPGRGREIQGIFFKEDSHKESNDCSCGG
The data set is described as follows: Inhibition of recombinant human GST-tagged EPHB2 (616 to 884 residues) expressed in baculovirus expression system using Tyr 02 as substrate at 0.1 uM incubated for 60 mins by Z'-Lyte assay relative to control.

Data set [7] has as its target Tyrosine-protein kinase JAK1 (Homo sapiens, UniProt P23458).
Data set [8] has as its target Serine/threonine-protein kinase pim-1 (Homo sapiens) (UniProt P11309). The data set is described as follows: Inhibition of recombinant human His-tagged full length PIM1 expressed in baculovirus expression system using Ser/Thr 07 as substrate at 0.1 uM incubated for 60 mins by Z'-lyte assay relative to control.
The target of data set [9] is Cyclin-dependent kinase 1/cyclin B1 (Homo sapiens) (UniProt P06493+P14635). The data set is described as follows: Inhibition of recombinant human His-tagged full length CDK1/Cyclin B expressed in baculovirus expression system using Ser/Thr 18 as substrate at 0.1 uM incubated for 60 mins by Z'-Lyte assay relative to control.
Sequence of Cyclin-dependent kinase 1/cyclin B1 (Homo sapiens) (P06493 whole entry, looked up): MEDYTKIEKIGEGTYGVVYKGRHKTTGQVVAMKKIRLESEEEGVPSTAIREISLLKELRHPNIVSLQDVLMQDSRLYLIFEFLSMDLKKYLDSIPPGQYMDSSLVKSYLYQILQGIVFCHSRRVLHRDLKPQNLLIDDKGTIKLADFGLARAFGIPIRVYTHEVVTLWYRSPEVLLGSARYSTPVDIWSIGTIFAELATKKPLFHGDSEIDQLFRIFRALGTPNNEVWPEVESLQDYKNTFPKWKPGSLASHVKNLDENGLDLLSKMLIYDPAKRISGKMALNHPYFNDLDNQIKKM
Sequence of Cyclin-dependent kinase 1/cyclin B1 (Homo sapiens) (P14635 whole entry, looked up): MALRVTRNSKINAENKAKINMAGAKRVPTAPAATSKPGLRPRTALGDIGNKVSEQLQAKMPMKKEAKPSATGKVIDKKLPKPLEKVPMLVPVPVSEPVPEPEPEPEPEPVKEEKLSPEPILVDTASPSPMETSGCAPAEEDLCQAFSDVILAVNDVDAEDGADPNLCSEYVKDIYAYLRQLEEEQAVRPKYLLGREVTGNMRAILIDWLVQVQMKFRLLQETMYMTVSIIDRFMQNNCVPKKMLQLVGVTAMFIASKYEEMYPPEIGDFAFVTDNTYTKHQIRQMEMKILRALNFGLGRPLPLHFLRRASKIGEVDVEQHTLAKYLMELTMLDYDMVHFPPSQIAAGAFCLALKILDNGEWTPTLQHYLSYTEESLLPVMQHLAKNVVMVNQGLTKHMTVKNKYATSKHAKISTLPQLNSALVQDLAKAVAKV

Sequence of Tyrosine-protein kinase JAK1 (P23458 whole entry): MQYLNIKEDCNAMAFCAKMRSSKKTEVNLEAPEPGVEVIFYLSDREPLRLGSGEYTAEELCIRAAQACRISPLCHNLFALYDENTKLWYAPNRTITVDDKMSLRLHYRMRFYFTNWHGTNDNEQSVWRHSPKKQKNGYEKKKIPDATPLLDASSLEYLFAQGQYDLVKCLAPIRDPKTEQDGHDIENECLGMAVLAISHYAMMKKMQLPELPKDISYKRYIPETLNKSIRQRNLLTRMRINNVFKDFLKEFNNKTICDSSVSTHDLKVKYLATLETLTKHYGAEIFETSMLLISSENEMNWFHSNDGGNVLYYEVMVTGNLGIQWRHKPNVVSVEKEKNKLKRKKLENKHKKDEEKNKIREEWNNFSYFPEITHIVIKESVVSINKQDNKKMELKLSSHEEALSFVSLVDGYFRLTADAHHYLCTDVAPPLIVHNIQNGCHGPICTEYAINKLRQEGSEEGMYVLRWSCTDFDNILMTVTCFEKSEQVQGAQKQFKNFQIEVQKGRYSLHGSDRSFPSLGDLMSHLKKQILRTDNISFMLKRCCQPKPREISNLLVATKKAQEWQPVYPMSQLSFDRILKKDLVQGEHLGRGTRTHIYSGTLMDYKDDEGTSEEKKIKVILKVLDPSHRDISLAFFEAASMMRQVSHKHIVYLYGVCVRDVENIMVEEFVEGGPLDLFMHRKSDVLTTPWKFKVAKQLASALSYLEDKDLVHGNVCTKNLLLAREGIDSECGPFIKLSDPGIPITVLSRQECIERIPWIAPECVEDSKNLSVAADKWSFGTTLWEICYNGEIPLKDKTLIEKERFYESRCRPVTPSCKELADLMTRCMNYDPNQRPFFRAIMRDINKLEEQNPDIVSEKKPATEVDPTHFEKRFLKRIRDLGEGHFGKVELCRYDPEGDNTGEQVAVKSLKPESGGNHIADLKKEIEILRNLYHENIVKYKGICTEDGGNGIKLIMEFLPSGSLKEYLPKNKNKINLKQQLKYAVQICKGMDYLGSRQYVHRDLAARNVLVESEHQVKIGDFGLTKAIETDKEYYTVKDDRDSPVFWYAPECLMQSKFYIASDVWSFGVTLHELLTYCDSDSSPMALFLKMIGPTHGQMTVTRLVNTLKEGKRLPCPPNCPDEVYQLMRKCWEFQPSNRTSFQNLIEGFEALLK
Sequence of Serine/threonine-protein kinase pim-1 (Homo sapiens) (P11309 whole entry, looked up): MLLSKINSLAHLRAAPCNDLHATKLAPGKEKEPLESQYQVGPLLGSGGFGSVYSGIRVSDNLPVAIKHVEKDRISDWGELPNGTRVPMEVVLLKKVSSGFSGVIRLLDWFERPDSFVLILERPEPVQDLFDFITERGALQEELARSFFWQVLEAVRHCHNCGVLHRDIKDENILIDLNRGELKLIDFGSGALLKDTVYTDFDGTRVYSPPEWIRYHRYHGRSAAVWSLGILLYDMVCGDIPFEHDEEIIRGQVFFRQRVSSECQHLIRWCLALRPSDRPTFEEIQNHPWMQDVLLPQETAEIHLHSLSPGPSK
Sequence of Serine/threonine-protein kinase pim-2 (Homo sapiens) (Q9P1W9 whole entry, looked up): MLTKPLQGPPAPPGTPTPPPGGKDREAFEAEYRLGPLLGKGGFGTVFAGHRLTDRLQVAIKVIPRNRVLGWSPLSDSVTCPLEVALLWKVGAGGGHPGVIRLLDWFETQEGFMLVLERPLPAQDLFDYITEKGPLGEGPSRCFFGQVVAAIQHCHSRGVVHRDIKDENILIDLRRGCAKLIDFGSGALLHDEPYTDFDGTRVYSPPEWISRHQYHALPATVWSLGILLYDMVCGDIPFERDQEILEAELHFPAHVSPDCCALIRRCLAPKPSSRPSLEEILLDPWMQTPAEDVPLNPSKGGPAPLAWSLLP

Take `O=C(Nc1c[nH]nc1-c1cc(Cl)ccc1OC(F)F)c1cnn2cccnc12`: the inhibition (commonly the relative decrease from the control value, in per cent) worked out at 18% in data set [1]; 1% in data set [2]; 1% in data set [4]; 10% in data set [6]; 4% in [8]; 53% in [9]. The efflux ratio (commonly the permeability from basolateral to apical divided by that in the opposite direction, in the common usage) at 3 h, 10 µM in data set [3] amounted to 1.1. Besides, the figures for the IC50 in [5] and in data set [7] were 5.2 nM and 1.2 nM, respectively.
As for `Cn1cc(NC(=O)c2cnn3cccnc23)c(-c2cc(Cl)ccc2OC(F)F)n1`, the inhibition in data set [1] is 2%; in data set [2], 4%; in data set [4], -6%; in data set [6], 1%; in data set [8], 6%; in data set [9] it was 4%. For the same compound, the efflux ratio at 3 h, 10 µM in [3] came out at 0.55. For the same compound, the results for the IC50 in data set [5] and in [7] were 4.7 nM and 1.7 nM, respectively.
As for `O=C(Nc1c[nH]nc1-c1cc2ccccc2cc1OC(F)F)c1cnn2cccnc12`, the inhibition in data set [1] was -1%; in [2] it was 8%; in data set [4], -5%; in [6], -3%; in data set [8], 4%; in data set [9] it was 27%. In addition, the efflux ratio at 3 h, 10 µM in data set [3] was determined as 1.2. Further, the IC50 – broadly, the concentration that inhibits the measured activity by half – was 6.4 nM in data set [5] and 2.2 nM in [7].
